The test system of one assay is HCT116 cells. In words: Calculated oxaliplatin IC50 in parental HCT116 cells. To be noted: read-out: calculated IC50.
Assay [1] concerns oxaliplatin resistance HCT116 cells. In words: Calculated oxaliplatin IC50 in oxaliplatin resistant HCT116 cells. Conditions: read-out: calculated IC50; HCT116 cells rendered oxaliplatin resistant by stepwise increasing oxaliplatin over 16 passages.

Consider one compound from patent publication US20130323231A1, “TREATMENT AND PROGNOSIS OF SOLID TUMOUR CANCERS” (ROYAL COLLEGE OF SURGEONS IN IRELAND, priority 2011, published 2013).

Molecules are shown by their SMILES.

As to `O=C1[O][Pt]2([NH][C@@H]3CCCC[C@H]3[NH]2)[O]C1=O` [oxaliplatin], the IC50 is 350 nM with HCT116 cells and 5000 nM in assay [1].

For orientation: IC50 means the concentration that gives 50% inhibition.
